Data taken from patent US20070219141A1, “Plant Materials Extraction Method” (priority 2003, published 2007).

Experiments:
Format in all cases: cell-based
[1] = tested on: all the bacteria and fungus used in above biological screening; experiment: Disk diffusion assay, whole panel; conditions: seven bacteria and C. albicans
From the text: (§1) Microorganisms: Laboratory strains of bacteria and fungus were obtained from Dr. Neil Towers' and Dr. Jovel's lab, The University of British Columbia. Seven species of bacteria and one species of fungus will be used in the screening process. The bacteria strains consisted of Staphylococcus aureus, methicillin resistant Staphylococcus aureus, Bacillus subtilis and Enterococcus faecalis, Escherichia coli, Pseudomonas aeruginosa, and Salmonella typhimurium. The fungal species was Candida albicans.
(§2) Methods: Disk diffusion assay on agar plates inoculated with the organisms being studies. The plates were divided into quadrants or sixths using a black marking pen. In quadrant 1 and 2, negative and positive controls were run (no treatment and gentamicin). Test compounds were run on the remaining available portions.

[2] = tested on: Pseudomonas aeruginosa; experiment: Disk diffusion assay on agar plates; parameters: key: “+” active; “—” not active
From the text: as §1, §2

[3] = tested on: Candida albicans; experiment: Disk diffusion assay on agar plates; parameters: key: “+” active; “—” not active
From the text: as §1, §2

[4] = tested on: Enterococcus faecalis; experiment: Disk diffusion assay on agar plates; parameters: key: “+” active; “—” not active
From the text: as §1, §2

[5] = tested on: Salmonella typhimurium; experiment: Disk diffusion assay on agar plates; parameters: key: “+” active; “—” not active
From the text: as §1, §2

Compound | anti-microbial activity over the panel, in words [1] | Anti-microbial activity P. a [2] | Anti-microbial activity C. a [3] | Anti-microbial activity E. f. [4] | Anti-microbial activity S. t. [5]
CC(C)c1cccc(=O)c(O)c1 [Hinokitiol standard, 2,4,6-Cycloheptatrien-1-one,2-hydroxy-4-(1-methylethyl)] | demonstrated activities against all the bacteria and fungus | + |  |  | 
Gentamicin | active against all the tested bacteria but not against C. albicans |  | — | + | 
CC1(C)C=CC=C(C(=O)O)C=C1 [Thujic acid standard, thujic acid] | showed activities against some bacteria and fungus | — |  |  | +
